We go through one molecule from patent publication US20230127703A1, “THERAPEUTIC AGENT FOR CORONAVIRUS INFECTION” (FUJIFILM Toyama Chemical Co., Ltd., priority 2020, published 2023).

In the series the test system is SARS-CoV-2.
Setting [1] is: improvement of body temperature, SpO2, chest imaging followed by negative conversion of SARS-CoV-2, N = 107.

For the molecule `NC(=O)c1nc(F)cnc1O` [Compound A, 6-fluoro-3-hydroxy-2-pyrazinecarboxamide], for the setting “Compound A group (107 patients) vs control group (49 patients)”, the “median time to improvement compared with control group” value is “shorter by approximately three days”. Further, for the setting “Compound A group vs control group”, the “treatment effect compared with control group” value is given as “statistically significantly higher treatment effect”. Further, for the setting “Compound A group, 107 patients, up to 14 days of treatment”, the clinical safety result is listed as “no clinical safety concerns were identified”. Also, under setting [1], the “Time to improvement in 25% of patients (days) (median)” value is listed as 7.7 days, the “Time to improvement in 50% of patients (days) (median)” value is on record as 11.8 days and the “Time to improvement in 75% of patients (days) (median)” value stood at 15.6 days. For the same molecule, the Patients with improvement (number of patients of N = 107, standard of care + 1,800 mg BID Day 1, 800 mg BID up to 13 days, oral, mITT) was determined as 82.
